In article PMC10648875 (Antimicrobial Agents and Chemotherapy, 2023):
In brackets after ≈: the same amount, converted by molar mass. Several values for one entry are separate records, joined by “and”; a condition that tells them apart may be missing. Equal entries are not always repeated. Where two headings read alike, the source gives them in different places.

How the values were obtained:
[1] = test system: PAM4186 producing CMY-2; test: MIC, engineered isogenic strain; assay type: cell-based, P. aeruginosa; conditions: CMY-2, class C; BLIs at fixed 4 µg/mL
[2] = test system: PAM4798 producing VIM-2; test: MIC, engineered isogenic strain; assay type: cell-based, P. aeruginosa; conditions: VIM-2, class B; BLIs at fixed 4 µg/mL
[3] = test system: PAM4179 producing NDM-1; test: MIC, engineered isogenic strain; assay type: cell-based, P. aeruginosa; conditions: NDM-1, class B; BLIs at fixed 4 µg/mL
[4] = test system: PAM4880 producing L1; test: MIC, engineered isogenic strain; assay type: cell-based, P. aeruginosa; conditions: L1, class B; BLIs at fixed 4 µg/mL
[5] = test system: PAM4889 producing IMP-26; test: MIC, engineered isogenic strain; assay type: cell-based, P. aeruginosa; conditions: IMP-26, class B; BLIs at fixed 4 µg/mL
[6] = test system: PAM4885 producing SPM-1; test: MIC, engineered isogenic strain; assay type: cell-based, P. aeruginosa; conditions: SPM-1, class B; BLIs at fixed 4 µg/mL
[7] = test system: PAM4198 producing IMP-15; test: MIC, engineered isogenic strain; assay type: cell-based, P. aeruginosa; conditions: IMP-15, class B; BLIs at fixed 4 µg/mL
[8] = test system: PAM4801 producing GES-20; test: MIC, engineered isogenic strain; assay type: cell-based, P. aeruginosa; conditions: GES-20, class A; BLIs at fixed 4 µg/mL
[9] = test system: PAM4884 producing ADC-181; test: MIC, engineered isogenic strain; assay type: cell-based, P. aeruginosa; conditions: ADC-181, class C; BLIs at fixed 4 µg/mL
[10] = test system: PAM4888 producing IMP-4; test: MIC, engineered isogenic strain; assay type: cell-based, P. aeruginosa; conditions: IMP-4, class B; BLIs at fixed 4 µg/mL
[11] = test system: carbapenem-resistant Enterobacterales (subset of 507 isolates); test: organism not typed; assay type: cell-based; conditions: xeruborbactam and vaborbactam fixed 8 mg/L, all other BLIs 4 mg/L; for MIC50: read-out: MIC50; for MIC90: read-out: MIC90
[12] = test system: PAM4825 producing MIR-1; test: MIC, engineered isogenic strain; assay type: cell-based, P. aeruginosa; conditions: MIR-1, class C; BLIs at fixed 4 µg/mL
[13] = test system: PAM4890 producing IMP-19; test: MIC, engineered isogenic strain; assay type: cell-based, P. aeruginosa; conditions: IMP-19, class B; BLIs at fixed 4 µg/mL
[14] = test system: PAM4827 producing OXA-1; test: MIC, engineered isogenic strain; assay type: cell-based, P. aeruginosa; conditions: OXA-1, class D; BLIs at fixed 4 µg/mL
[15] = test system: PAM4874 producing SHV-12; test: MIC, engineered isogenic strain; assay type: cell-based, P. aeruginosa; conditions: SHV-12, class A; BLIs at fixed 4 µg/mL
[16] = test system: PAM4800 producing GES-19; test: MIC, engineered isogenic strain; assay type: cell-based, P. aeruginosa; conditions: GES-19, class A; BLIs at fixed 4 µg/mL
[17] = test system: PAM4795 producing VIM-1; test: MIC, engineered isogenic strain; assay type: cell-based, P. aeruginosa; conditions: VIM-1, class B; BLIs at fixed 4 µg/mL
[18] = test system: PAM4823 producing CTX-M-27; test: MIC, engineered isogenic strain; assay type: cell-based, P. aeruginosa; conditions: CTX-M-27, class A; BLIs at fixed 4 µg/mL
[19] = target: OXA-23 (Acinetobacter baumannii, UniProt Q9L4P2); test: Ki app of β-lactamase inhibition, purified enzyme; assay type: biochemical; conditions: 10-minute preincubation; nitrocefin substrate
Sequence of OXA-23 (Q9L4P2 18-273): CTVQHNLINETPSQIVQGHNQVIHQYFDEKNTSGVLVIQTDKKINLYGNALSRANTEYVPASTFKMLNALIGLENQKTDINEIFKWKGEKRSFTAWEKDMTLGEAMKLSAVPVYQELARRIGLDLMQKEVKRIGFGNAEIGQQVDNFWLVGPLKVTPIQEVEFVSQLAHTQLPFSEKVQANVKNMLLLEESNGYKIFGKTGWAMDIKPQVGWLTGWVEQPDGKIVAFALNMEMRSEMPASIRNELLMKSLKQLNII
Experimental: (§1) The majority of purified β-lactamase enzymes used in the study were either expressed and purified internally ([35]) or obtained from Emerald Biostructures (Bainbridge Island, WA, USA). L1 enzyme was purified as described in reference ([36]).
(§2) Enzymes were mixed with BLIs at concentrations varying from 160 to 0.0027 µM in 50-mM Na-phosphate pH7.0, 0.1-mg/mL bovide serum albumin (BSA) (buffer A; 20-µM ZnCl2 was also added for all metalloenzymes) and incubated for 10 minutes at 37°C. Nitrocefin (50 µM) (10 µM for SHV-12) or 100 µM of imipenem (prewarmed at 37°C for 10 minutes) was added, and substrate cleavage profiles were recorded at 37°C at 490 nm every 10 seconds for 10 minutes or at 294 nm every 30 seconds for 1 hour for nitrocefin and imipenem, respectively. […] Ki app values (Ki for metalloenzymes) were calculated by the method of Waley ([37]).

[20] = target: CTX-M-15 (Escherichia coli, UniProt Q9EXV5); test: Ki app of β-lactamase inhibition, purified enzyme; assay type: biochemical; conditions: 10-minute preincubation; nitrocefin substrate
Sequence of CTX-M-15 (Q9EXV5 entry or part of it): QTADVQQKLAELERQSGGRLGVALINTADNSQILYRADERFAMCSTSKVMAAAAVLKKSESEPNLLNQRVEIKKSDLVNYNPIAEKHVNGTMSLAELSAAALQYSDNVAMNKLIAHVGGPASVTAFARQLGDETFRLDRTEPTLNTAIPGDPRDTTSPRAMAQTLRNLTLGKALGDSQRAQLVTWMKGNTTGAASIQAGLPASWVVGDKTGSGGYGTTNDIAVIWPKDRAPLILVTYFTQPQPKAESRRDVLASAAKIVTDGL
Experimental: as §1, §2

[21] = target: P99 (Enterobacter cloacae, UniProt P05364); test: Ki app of β-lactamase inhibition, purified enzyme; assay type: biochemical; conditions: 10-minute preincubation; nitrocefin substrate; read-out: Ki app
Sequence of P99 (P05364 21-381): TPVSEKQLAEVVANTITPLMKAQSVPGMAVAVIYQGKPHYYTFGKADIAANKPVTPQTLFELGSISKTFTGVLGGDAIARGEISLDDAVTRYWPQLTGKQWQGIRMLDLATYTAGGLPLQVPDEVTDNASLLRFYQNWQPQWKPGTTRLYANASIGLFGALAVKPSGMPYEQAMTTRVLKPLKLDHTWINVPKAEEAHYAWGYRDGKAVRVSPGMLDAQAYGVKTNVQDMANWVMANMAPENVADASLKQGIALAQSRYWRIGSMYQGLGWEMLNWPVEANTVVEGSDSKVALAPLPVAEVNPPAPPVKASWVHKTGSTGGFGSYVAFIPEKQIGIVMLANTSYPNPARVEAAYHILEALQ
Experimental: as §1, §2

[22] = target: PDC1 (Pseudomonas aeruginosa, UniProt P24735); test: Ki app of β-lactamase inhibition, purified enzyme; assay type: biochemical; conditions: 10-minute preincubation; nitrocefin substrate
Sequence of PDC1 (P24735 27-397): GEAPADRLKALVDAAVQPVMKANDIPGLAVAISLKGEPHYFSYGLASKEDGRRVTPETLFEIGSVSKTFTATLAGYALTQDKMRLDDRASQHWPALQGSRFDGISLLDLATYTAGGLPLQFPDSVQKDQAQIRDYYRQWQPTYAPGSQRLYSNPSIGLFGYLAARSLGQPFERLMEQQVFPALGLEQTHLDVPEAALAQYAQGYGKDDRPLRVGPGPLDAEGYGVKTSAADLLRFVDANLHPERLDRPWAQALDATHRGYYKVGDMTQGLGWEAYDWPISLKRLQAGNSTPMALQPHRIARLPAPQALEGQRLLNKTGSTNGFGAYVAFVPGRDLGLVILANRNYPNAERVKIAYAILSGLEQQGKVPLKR
Experimental: as §1, §2

[23] = target: CTX-M-14 (Escherichia coli, UniProt Q9L5C7); test: Ki app of β-lactamase inhibition, purified enzyme; assay type: biochemical; conditions: 10-minute preincubation; nitrocefin substrate
Sequence of CTX-M-14 (Q9L5C7 entry or part of it): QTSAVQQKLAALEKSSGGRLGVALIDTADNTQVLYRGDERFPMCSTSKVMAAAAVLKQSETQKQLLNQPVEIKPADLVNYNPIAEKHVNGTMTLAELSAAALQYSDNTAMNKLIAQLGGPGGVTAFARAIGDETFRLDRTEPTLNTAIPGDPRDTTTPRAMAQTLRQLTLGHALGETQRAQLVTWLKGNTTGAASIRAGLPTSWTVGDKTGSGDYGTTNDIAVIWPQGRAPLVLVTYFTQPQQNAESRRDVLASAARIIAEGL
Experimental: as §1, §2

[24] = target: VIM-1 (Pseudomonas aeruginosa, UniProt A0A0F7KYQ8); test: Ki of metallo-β-lactamase inhibition, purified enzyme; assay type: biochemical; conditions: 10-minute preincubation, nitrocefin substrate
Experimental: as §1, §2

[25] = target: T1, L1 (Stenotrophomonas maltophilia, UniProt P52700); test: as above; assay type: biochemical; conditions: 10-minute preincubation; nitrocefin substrate
T1 construct: made in house
T1 sequence (P52700 34-290): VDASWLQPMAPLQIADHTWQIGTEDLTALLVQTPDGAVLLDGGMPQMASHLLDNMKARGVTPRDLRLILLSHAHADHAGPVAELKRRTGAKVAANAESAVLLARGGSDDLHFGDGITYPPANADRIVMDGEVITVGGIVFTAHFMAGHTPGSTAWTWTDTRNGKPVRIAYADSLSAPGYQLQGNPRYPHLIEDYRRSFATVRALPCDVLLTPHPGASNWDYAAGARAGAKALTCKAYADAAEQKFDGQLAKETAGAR
Experimental: as §1, §2

[26] = target: T2, VIM-1 (lysate of KP1015) (Pseudomonas aeruginosa, UniProt A0A0F7KYQ8); test: IC50 of β-lactamase inhibition (imipenem cleavage) in cell lysates; assay type: biochemical, K. pneumoniae
T2 construct: endogenous in cells; host or cells: K. pneumoniae KP1015

[27] = target: T3, VIM-1 in whole cells of KP1015 (OmpK36 GD repeat) (Pseudomonas aeruginosa, UniProt A0A0F7KYQ8); test: cell-based; parameters: species or system K. pneumoniae
T3 construct: endogenous in cells; host or cells: K. pneumoniae KP1015

Row | SMILES | MIC [1] [µg/mL] | MIC [2] [µg/mL] | MIC [3] [µg/mL] | MIC [4] [µg/mL] | MIC [5] [µg/mL] | MIC [6] [µg/mL] | MIC [7] [µg/mL] | MIC [8] [µg/mL] | MIC [9] [µg/mL] | MIC [10] [µg/mL] | MIC50 ([11]; CRE (N = 507)) [µg/mL] | MIC90 ([11]; CRE (N = 507)) [µg/mL] | MIC50 ([11]; KPC (N = 193)) [µg/mL] | MIC90 ([11]; KPC (N = 193)) [µg/mL] | MIC50 ([11]; MBL (N = 168)) [µg/mL] | MIC90 ([11]; MBL (N = 168)) [µg/mL] | MIC50 ([11]; Non-CP CRE (N = 50)) [µg/mL] | MIC90 ([11]; Non-CP CRE (N = 50)) [µg/mL] | MIC50 ([11]; OXA-48-like (N = 96)) [µg/mL] | MIC90 ([11]; OXA-48-like (N = 96)) [µg/mL] | further results
1 | CO/N=C(\C(=O)N[C@@H]1C(=O)N2C(C(=O)[O-])=C(C[N+]3(C)CCCC3)CS[C@H]12)c1csc(N)n1 [FEP, cefepime] | 1 (≈ 2.08 µM) | 8 (≈ 16.6 µM) | > 64 | 4 (≈ 8.32 µM) | 64 (≈ 133 µM) | > 64 | 16 (≈ 33.3 µM) | 2 (≈ 4.16 µM) | 0.5 (≈ 1.04 µM) | 32 (≈ 66.6 µM) | > 64 | > 64 | > 64 | > 64 | > 64 | > 64 | > 64 | > 64 | > 64 | > 64 | MIC [12]: 2 µg/mL (≈ 4.16 µM); MIC [13]: 64 µg/mL (≈ 133 µM); MIC [14]: 1 µg/mL (≈ 2.08 µM); MIC [15]: 64 µg/mL (≈ 133 µM); MIC [16]: 64 µg/mL (≈ 133 µM); MIC [17]: > 64 µg/mL; MIC [18]: > 64 µg/mL
2 | C[C@@H](O)[C@H]1C(=O)N2C(C(=O)O)=C(S[C@@H]3CN[C@H](C(=O)N(C)C)C3)[C@H](C)[C@H]12 [MEM, meropenem] | 0.25 (≈ 0.652 µM) | 8 (≈ 20.9 µM) | 32 (≈ 83.4 µM) | 32 (≈ 83.4 µM) | 8 (≈ 20.9 µM) | 32 (≈ 83.4 µM) | 1 (≈ 2.61 µM) | 8 (≈ 20.9 µM) | 0.125 (≈ 0.326 µM) | 4 (≈ 10.4 µM) | 0.5 | > 64 | 16 | > 64 | 64 | > 64 | 4 | 16 | 16 | 64 | MIC [12]: 0.5 µg/mL (≈ 1.3 µM); MIC [13]: 1 µg/mL (≈ 2.61 µM); MIC [14]: ≤ 0.06 µg/mL; MIC [15]: 0.25 µg/mL (≈ 0.652 µM); MIC [16]: 1 µg/mL (≈ 2.61 µM); MIC [17]: 4 µg/mL (≈ 10.4 µM); MIC [18]: 0.5 µg/mL (≈ 1.3 µM)
3 | NCCN[C@H]1CC[C@H](CC(=O)N[C@H]2Cc3cccc(C(=O)O)c3OB2O)CC1 [Taniborbactam, taniborbactam] | – | – | – | – | – | – | – | – | – | – | – | – | – | – | – | – | – | – | – | – | Ki [19]: > 20000 nM; Ki [20]: 2.6 ± 0.1 nM; Ki [21]: 2.4 ± 0.5 nM; Ki [22]: 22 nM; Ki [23]: 1.2 ± 0.5 nM; Ki [24]: 31 ± 3 nM; Ki ([24]; listed as taniborbactam): ~30 nM; Ki [25]: 17000 nM; IC50 ([26]; KP1015, VIM-1, imipenem cleavage, read-out: IC50 of β-lactamase inhibition in cell lysates): 190 ± 10 nM; IC50 ([27]; read-out: IC50 of β-lactamase inhibition in whole cells): 39100 ± 8200 nM
4 | O=C(O)c1c(F)ccc2c1OB(O)[C@@H]1C[C@H]21 [Xeruborbactam, xeruborbactam] | – | – | – | – | – | – | – | – | – | – | – | – | – | – | – | – | – | – | – | – | Ki [19]: 0.74 ± 0.28 nM; Ki [20]: 0.37 ± 0.01 nM; Ki [21]: 8 nM and 8.5 nM; Ki [22]: 14 nM; Ki [23]: 0.29 ± 0.06 nM; Ki [24]: 32 ± 14 nM; Ki [25]: 1400 nM; IC50 [26]: 250 ± 20 nM; IC50 [27]: 70000 ± 13400 nM
